Measured values from US9676789B2, “Aminated derivative of homoharringtonine, preparation method therefor, and application thereof” (HANGZHOU BENSHENG PHARMACEUTICAL CO., LTD., priority 2011, dated 2017).
In brackets after ≈: the same amount, converted by molar mass. Read-outs that look alike come from different tables or passages of the source.

Tests used:
[1] = test system: H9 (acute lymphoblastic leukemia, ALL); assay: MTT leukemia cell growth inhibition, 72 h; assay type: cell-based, human; conditions: H9, 72 h
Procedure, shortened: (§1)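 After 72 h of compound exposure (37°C, 5% CO2), viability was read by MTT and expressed relative to untreated cells at 100%. Each well held 6000 leukemia cells in 1640 medium containing 10% fetal bovine serum, with homoharringtonine derivatives added at a range of concentrations.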

[2] = test system: Jurkat (acute lymphoblastic leukemia, ALL); assay: MTT leukemia cell growth inhibition, 72 h; assay type: cell-based, human
Procedure, shortened: as §1

[3] = test system: K562/adr (drug-resistant, chronic myeloid leukemia, CML); assay: MTT leukemia cell growth inhibition, 72 h; assay type: cell-based, human
Procedure, shortened: as §1

[4] = test system: Kasumi-1 (acute myeloid leukemia M2 type, AML-M2); assay: MTT leukemia cell growth inhibition, 72 h; assay type: cell-based, human; conditions: Kasumi-1, 72 h
Procedure, shortened: as §1

[5] = test system: NB4 (acute promyelocytic leukemia, AML); assay: MTT leukemia cell growth inhibition, 72 h; assay type: cell-based, human; conditions: NB4, 72 h
Procedure, shortened: as §1

[6] = test system: RPMI8226 (multiple myeloma); assay: MTT multiple myeloma cell growth inhibition, 72 h; assay type: cell-based, human; conditions: for IC50 / IC90: RPMI8226, 72 h
Procedure, shortened: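 RPMI8226 cells at 6000 per well in 1640 medium with 10% fetal bovine serum, exposed to homoharringtonine derivatives at various concentrations. Incubation 72 h at 37° C, 5% CO2; viable cells read by MTT.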

[7] = test system: A549 (human lung cancer); assay: MTT solid tumor cell growth inhibition, 72 h; assay type: cell-based; conditions: A549, 72 h
Procedure, shortened: (§2)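 MTT read-out after 72 h compound treatment at 37° C, 5% CO2, of 4000 cells/well that had first been cultured 24 h in DMEM high glucose plus 10% FBS. Cell viability (%) refers to untreated control as 100%.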

[8] = test system: Becap37 (human breast cancer cell); assay: MTT solid tumor cell growth inhibition, 72 h; assay type: cell-based; conditions: Becap37, 72 h
Procedure, shortened: as §2

[9] = test system: Hela (human cervical cancer cell); assay: MTT solid tumor cell growth inhibition, 72 h; assay type: cell-based
Procedure, shortened: as §2

[10] = test system: Hep-2 (human hepatocellular carcinoma); assay: MTT solid tumor cell growth inhibition, 72 h; assay type: cell-based; conditions: Hep2, 72 h
Procedure, shortened: as §2

[11] = test system: Huh7 (human liver cancer cell); assay: MTT solid tumor cell growth inhibition, 72 h; assay type: cell-based; conditions: Huh7, 72 h
Procedure, shortened: as §2

[12] = test system: MGC 803 (human gastric cancer cell); assay: MTT solid tumor cell growth inhibition, 72 h; assay type: cell-based; conditions: MGC 803, 72 h
Procedure, shortened: as §2

[13] = test system: RKO (human colon adenocarcinoma cell); assay: MTT solid tumor cell growth inhibition, 72 h; assay type: cell-based
Procedure, shortened: as §2

[14] = test system: CNE (nasopharyngeal carcinoma cell); assay: MTT solid tumor cell growth inhibition, 72 h; assay type: cell-based, human
Procedure, shortened: as §2

[15] = test system: CaES-17 (esophageal cancer cell); assay: MTT solid tumor cell growth inhibition, 72 h; assay type: cell-based, human; conditions: CaES-17, 72 h
Procedure, shortened: as §2

[16] = test system: MG63 (osteosarcoma); assay: MTT solid tumor cell growth inhibition, 72 h; assay type: cell-based, human; conditions: MG 63, 72 h
Procedure, shortened: as §2

[17] = test system: PANC-1 (pancreatic cancer); assay: MTT solid tumor cell growth inhibition, 72 h; assay type: cell-based, human; conditions: PANC-1, 72 h
Procedure, shortened: as §2

[18] = test system: PC-3 (prostate cancer); assay: MTT solid tumor cell growth inhibition, 72 h; assay type: cell-based, human; conditions: PC-3, 72 h
Procedure, shortened: as §2

[19] = test system: SK-OV-3 (ovarian cancer cell); assay: MTT solid tumor cell growth inhibition, 72 h; assay type: cell-based, human; conditions: SK-OV-3, 72 h
Procedure, shortened: as §2

[20] = test system: U87 MG (malignant glioma cell); assay: MTT solid tumor cell growth inhibition, 72 h; assay type: cell-based, human
Procedure, shortened: as §2

[21] = test system: K562/adr, NB4, Kasumi-1 and H9; assay: Anti-leukemia activity, summary over cell lines; assay type: cell-based, human; conditions: result in words, summary of Table 1
Text: Leukemia cell lines: K562/adr (drug-resistant, chronic myeloid leukemia, CML), NB4 (acute promyelocytic leukemia, AML), Kasumi-1 (acute myeloid leukemia M2 type, AML-M2), Jurkat (acute lymphoblastic leukemia, ALL), all of which are donated by Cancer Research Institute of Zhejiang University, China; and H9 (acute lymphoblastic leukemia, ALL), which is purchased from China Center for Type Culture Collection.
Obtaining 6000 well-growing leukemia cells and inoculating them into wells of a 96-well cell culture plate. The culture medium is the 1640 cell culture medium containing 10% fetal bovine serum. After adding the homoharringtonine derivatives of different concentrations and mixing uniformly, placing the plate in a carbon dioxide cell incubator (5% CO2) at 37° C. and incubating for 72 hours. Then the viable cell concentration is determined by the MTT method. In this experiment, the cell viability in control group (not treated with any compound) is set as 100%.

[22] = test system: A549, PANC-1, Becap37, MG63, Huh7, RKO, Hela, CaES-17, CNE, Hep-2, PC-3 and SK-OV-3; assay: Anti-human solid tumor effect, summary over cell lines; assay type: cell-based; conditions: result in words, summary of Table 2
Protocol: Human solid tumor cell lines: Hep-2 ([…]), A549 (human lung cancer), CaES-17 (esophageal cancer cell), PC-3 (prostate cancer), CNE (nasopharyngeal carcinoma cell), and SK-OV-3 (ovarian cancer cell), all of which are purchased from China Center For Type Culture Collection; RKO (human colon adenocarcinoma cell), MGC 803 (human gastric cancer cell), MG63 (osteosarcoma) and U87 MG (malignant glioma cell), all of which are purchased from Fuxiang Bio-tech Co. Ltd., Shanghai, China; PANC-1 (pancreatic cancer), Huh7 (human liver cancer cell), Becap37 (human breast cancer cell), and Hela (human cervical cancer cell), all of which are donated by Cancer Research Institute of Zhejiang University, China.
Obtaining 4000 well-growing human solid tumor cells and inoculating them into wells of a 96-well cell culture plate. The culture medium is DMEM High Glucose cell culture medium containing 10% fetal bovine serum. The plate is placed in a carbon dioxide cell incubator (5% CO2) at 37° C. and incubating for 24 hours. After adding the homoharringtonine derivatives of different concentration and mixing uniformly, the plate is placed in a carbon dioxide cell incubator (5% CO2) at 37° C. and incubating for 72 hours. Then the viable cell concentration is determined by the MTT method and the cell viability (%) after drug treatment is calculated. In this experiment, the cell viability of control group (not treated with any compound) is set as 100%.

## O-3-[(2R)-2,6-dihydroxy-2-(2′-pyrrolyl-2′-oxoethyl)-6-methylheptanoyl]cephalotaxine [BS-HH-012]
[1]
  IC50: 0.27 µg/mL
  IC90: 3.49 µg/mL
[2]
  IC50: 0.058 µg/mL
  IC90: 16 µg/mL
[3]; K562/adr
  IC50: 0.65 µg/mL
  IC90: 9.87 µg/mL
[4]
  IC50: 0.038 µg/mL
  IC90: 0.14 µg/mL
[5]
  IC50: 0.08 µg/mL
  IC90: 0.23 µg/mL
[6]
  IC50: 0.057 µg/mL
  IC90: 0.36 µg/mL
[6]; result in words, summary of Table 2
  anti-RPMI8226 (multiple myeloma) effect: strong
[7]
  IC50: 0.45 µg/mL
  IC90: >16 µg/mL
[8]
  IC50: 0.26 µg/mL
  IC90: 16 µg/mL
[9]; Hela
  IC50: 0.35 µg/mL
  IC90: >16 µg/mL
[10]
  IC50: 0.15 µg/mL
  IC90: >16 µg/mL
[11]
  IC50: 0.2 µg/mL
  IC90: >16 µg/mL
[12]
  IC50: 0.24 µg/mL
  IC90: 6.84 µg/mL
[13]
  IC50: 0.11 µg/mL
  IC90: 0.43 µg/mL
[14]
  IC50: 0.13 µg/mL
  IC90: >16 µg/mL
[15]
  IC50: 0.43 µg/mL
  IC90: >16 µg/mL
[16]
  IC50: 0.18 µg/mL
  IC90: >16 µg/mL
[17]
  IC50: 0.26 µg/mL
  IC90: >16 µg/mL
[18]
  IC50: 0.32 µg/mL
  IC90: >16 µg/mL
[19]
  IC50: 0.41 µg/mL
  IC90: >16 µg/mL
[20]
  IC50: 0.24 µg/mL
  IC90: 1.13 µg/mL
[21]
  anti-K562/adr, anti-NB4, anti-Kasumi-1 and anti-H9 activity: strong
[22]
  anti-A549, anti-PANC-1, anti-Becap37, anti-MG63, anti-Huh7, anti-RKO, anti-Hela, anti-CaES-17, anti-CNE, anti-Hep-2, anti-PC-3 and anti-SK-OV-3 effect: strong

## COC1=C[C@]23CCCN2CCc2cc4c(cc2[C@@H]3[C@@H]1OC(=O)[C@@](O)(CCCC(C)(C)O)CC(=O)N1CCC(N(C)C)CC1)OCO4 [BS-HH-050]
[1]; Homo sapiens, read-out: IC50
  IC50: 0.13 µg/mL (≈ 0.203 µM)
[1]; Homo sapiens, read-out: IC90
  IC90: 0.35 µg/mL (≈ 0.545 µM)
[2]; Homo sapiens, read-out: IC50
  IC50: 0.12 µg/mL (≈ 0.187 µM)
[2]; Homo sapiens, read-out: IC90
  IC90: 16 µg/mL (≈ 24.9 µM)
[3]; Homo sapiens, K562/Adr, read-out: IC50
  IC50: 0.72 µg/mL (≈ 1.12 µM)
[3]; Homo sapiens, K562/Adr, read-out: IC90
  IC90: 8.99 µg/mL (≈ 14 µM)
[4]; Homo sapiens, read-out: IC50
  IC50: 0.041 µg/mL (≈ 0.0639 µM)
[4]; Homo sapiens, read-out: IC90
  IC90: 0.18 µg/mL (≈ 0.28 µM)
[5]; Homo sapiens, read-out: IC50
  IC50: 0.08 µg/mL (≈ 0.125 µM)
[5]; Homo sapiens, read-out: IC90
  IC90: 0.17 µg/mL (≈ 0.265 µM)
[6]; Homo sapiens, RPMI-8226, read-out: IC50
  IC50: 0.1 µg/mL (≈ 0.156 µM)
[6]; Homo sapiens, RPMI-8226, read-out: IC90
  IC90: 0.38 µg/mL (≈ 0.592 µM)
[7]; Homo sapiens, read-out: IC50
  IC50: 0.7 µg/mL (≈ 1.09 µM)
[7]; Homo sapiens, read-out: IC90
  IC90: > 16 µg/mL
[8]; Homo sapiens, read-out: IC50
  IC50: 0.26 µg/mL (≈ 0.405 µM)
[8]; Homo sapiens, read-out: IC90
  IC90: 16 µg/mL (≈ 24.9 µM)
[9]; Homo sapiens, HeLa, read-out: IC50
  IC50: 0.46 µg/mL (≈ 0.717 µM)
[9]; Homo sapiens, HeLa, read-out: IC90
  IC90: > 16 µg/mL
[10]; Homo sapiens, HEp-2, read-out: IC50
  IC50: 0.31 µg/mL (≈ 0.483 µM)
[10]; Homo sapiens, HEp-2, read-out: IC90
  IC90: > 16 µg/mL
[11]; Homo sapiens, Huh-7, read-out: IC50
  IC50: 0.1 µg/mL (≈ 0.156 µM)
[11]; Homo sapiens, Huh-7, read-out: IC90
  IC90: 16 µg/mL (≈ 24.9 µM)
[12]; Homo sapiens, read-out: IC50
  IC50: 0.18 µg/mL (≈ 0.28 µM)
[12]; Homo sapiens, read-out: IC90
  IC90: 0.48 µg/mL (≈ 0.748 µM)
[13]; Homo sapiens, read-out: IC50
  IC50: 0.053 µg/mL (≈ 0.0826 µM)
[13]; Homo sapiens, read-out: IC90
  IC90: 0.23 µg/mL (≈ 0.358 µM)
[14]; Homo sapiens, read-out: IC50
  IC50: 0.15 µg/mL (≈ 0.234 µM)
[14]; Homo sapiens, read-out: IC90
  IC90: > 16 µg/mL
[15]; Homo sapiens, CaEs17, read-out: IC50
  IC50: 0.46 µg/mL (≈ 0.717 µM)
[15]; Homo sapiens, CaEs17, read-out: IC90
  IC90: 16 µg/mL (≈ 24.9 µM)
[16]; Homo sapiens, read-out: IC50
  IC50: 0.19 µg/mL (≈ 0.296 µM)
[16]; Homo sapiens, read-out: IC90
  IC90: 7.22 µg/mL (≈ 11.2 µM)
[17]; Homo sapiens, read-out: IC50
  IC50: 0.23 µg/mL (≈ 0.358 µM)
[17]; Homo sapiens, read-out: IC90
  IC90: > 16 µg/mL
[18]; Homo sapiens, read-out: IC50
  IC50: 0.45 µg/mL (≈ 0.701 µM)
[18]; Homo sapiens, read-out: IC90
  IC90: > 16 µg/mL
[19]; Homo sapiens, read-out: IC50
  IC50: 0.57 µg/mL (≈ 0.888 µM)
[19]; Homo sapiens, read-out: IC90
  IC90: > 16 µg/mL
[20]; Homo sapiens, U-87 MG, read-out: IC50
  IC50: 0.24 µg/mL (≈ 0.374 µM)
[20]; Homo sapiens, U-87 MG, read-out: IC90
  IC90: 1.06 µg/mL (≈ 1.65 µM)
[21]
  anti-K562/adr, anti-NB4, anti-Kasumi-1 and anti-H9 activity: strong
[22]
  anti-A549, anti-PANC-1, anti-Becap37, anti-MG63, anti-Huh7, anti-RKO, anti-Hela, anti-CaES-17, anti-CNE, anti-Hep-2, anti-PC-3 and anti-SK-OV-3 effect: strong
